# Assay results published in patent publication US5958966A, “Treatment of aberrant cellular states with biomodulators” (University of New Mexico, priority 1995, dated 1999).
# “Also recorded” adds a separate entry of the source.
# Columns and labels:
# [1] = test system: human peripheral blood leukocytes (HPBL); assay: stimulation / inhibition of IgG production in HPBL; type: cell-based; conditions: HPBL
# Method: Human peripheral blood leukocytes were cultured in a standard tissue culture medium. Aliquots of these cultured cells (1,000,000 cells/ml medium) were cultured for 6 hours, and the specified amount of Formula II compound was added; the cells were then cultured for an additional 90 hours. Sheep red blood cells (SRBC) conditioned with class-specific (IpG) goat anti-human antiserum (1:400) for 2 hours; then guinea pig complement (2%) for 2 hours were conjugated to Protein A as described in detail in Radioimmunoimaging and Radioimmunotherapy, Eds. S. W. Burchiel and B. A. Rhodes, Elsevier Science Publishing; New York, 1983, pp. 125-127, incorporated herein by reference.
# anti-CG IgG antibodies = assay: tumor-specific (anti-CG) antibody production in a dog; type: in vivo
# canine glioma (CG) cells = assay: chromium-release cell-mediated lympholysis (CML) vs. CG tumor in a dog; type: in vivo; conditions: for CG-specific CML in words: dog
# From the text: Cellular immune response reflected the results reported in III, 1 above. […] This also is in the absence of CG antigen exposure. […] Thus, both cellular and humoral immunity appear to be modulatable in the absence of antigen by the compounds of the instant invention.
# canine glioma cells = assay: canine glioma tumor inhibition in nude rats (Formula II compound); type: in vivo, nude rat
# Method: Fifty four nude rats (Harlan) were injected in the right flank with 5×10^6 canine glioma cells. Animals at the time of injection were between 52 and 63 days old and weighed approximately 200 g. The rats were divided into 7 groups, each group having a total number of 7 rats except for the control group, which totalled 12 animals. Compound IIc' was administered to the experimental animals at one of the following doses for each experimental group: 100 μg/kg, 10 μg/kg, 1 μg/kg, 0.1 μg/kg, 0.01 μg/kg and 0.001 μg/kg (phosphate buffer saline, M, W, F, I.P.). The control animals were injected with PBS (phosphate buffered saline) only. The volume of each injection was 100 μl. The injections of drug were simultaneously begun with injection of tumor cells. The animals were injected with the appropriate dosage of drug (1 ng/kg to […]) by I. P. injection and tumor length, width and depth were measured using caliphers each Monday, Wednesday and Friday (M, W, F) morning for approximately 9 weeks. Each point on the graphs represents the total of all rats for each group. […] The data were normalized for the greater number of control animals by multiplying the total tumor volume for the control animals by 7/12.
smiles,measurement,setting,value
CC(C)OC(=O)C[C@H](O)C[C@@H](O)/C=C/c1c(C(C)C)nc(-c2ccccc2)n1-c1ccc(F)cc1 [Compound IIc'],IgG production in words,[1],stimulated IgG production
same,Inhibitory Concentration (nonspecific IgG production below normal),[1],none found
same,optimal dose in vitro,[1]; immune stimulation,100 pM
same,CG-specific antibody titer in words,anti-CG IgG antibodies,titers of antibody increased over the control antibody titer significantly; also recorded: CG-specific antibody (IgG) production increased significantly; also recorded: rapidly (within a few days) reverted to baseline control levels
same,slope M of linear regression of toxicity,"canine glioma (CG) cells; December 14, 1987",0.05
same,slope M of linear regression of toxicity,"canine glioma (CG) cells; February 9, 1988",0.35
same,slope M of linear regression of toxicity,"canine glioma (CG) cells; February 17, 1988",0.75
same,slope M of linear regression of toxicity,"canine glioma (CG) cells; March 31, 1988",0.05
same,CG-specific CML in words,canine glioma (CG) cells,significant increase in CML; also recorded: large increase in the CML reactivity; also recorded: CML reactivity again returned to baseline
same,CG-specific CML in words,canine glioma (CG) cells; listed as IIIc',only baseline levels of CG-specific CML were present
same,cytostatic activity at other doses,canine glioma cells; 10 and 100 μg/kg or 1 ng/kg,Little or no cytostatic activity
same,most effective dosage for inhibition,"canine glioma cells; nude rats, I.P., M, W, F",100 ng/kg
